According to patent US20230405151A1, “USE OF IRAK4 MODULATORS FOR GENE THERAPY” (Genzyme Corporation, priority 2022, published 2023):

Columns and labels:
[1] = test system: Human monocytic dendritic cells infected with AAV.SAN024; assay: Cytokine release (Meso Scale Discovery) from dendritic cells treated with IRAK4 modulators and infected with AAV; type: cell-based; settings: for AAV-induced secretion of IL1b cytokine from dendritic cells: 80 nM, all doses
Experimental: Preparation of peripheral blood mononuclear cells. Blood from leukopaks (Stem cell technologies) from different donors was decanted into 50 mL tubes and Dulbecco's phosphate buffered saline (DPBS) was added at a 1:1 ratio. The blood plus DBPS mix was gently pipetted into a separate 50 mL tube containing 15 mL Ficoll (GE17-5442-02) to ensure no mixing of the blood and Ficoll phases. The mixture was centrifuged at 2000 RPM for 25 minutes at room temperature (9 acceleration and no braking). The buffy coat containing the peripheral blood mononuclear cells (PBMCs) was collected, transferred to a new tube, and centrifuged for five minutes at 400 RCF. PBMCs were washed three times with phosphate buffered saline (PBS) containing 1% fetal bovine serum (FBS) or fetal calf serum (FCS) and counted.
Isolation of monocytes. CD14+ monocytes were isolated from the PBMCs using CD14 MicroBeads following the manufacturer's protocol (Miltenyi Biotech, Germany, order no. 130-050-201, protocol available online world wide web miltenyibiotec.com/upload/assets/IM0001260.PDF). Briefly, PBMCs were incubated with 20 μL of CD14 MicroBeads per 10^7 total cells for 15 minutes at 2-8° C. PBMCs were applied onto a magnetic column (Miltenyi; world wide web miltenyibiotec.com/US-en/products/ls-columns.html#130-042-401) and unlabeled cells were allowed to pass through. After washing the column three times, the column was removed from the magnetic separator, (Miltneyi; world wide web miltenyibiotec.com/US-en/products/quadromacs-separator-and-starting-kits.html#130-091-051) placed on a collection tube, and magnetically labeled CD14+ monocytes were flushed out by pushing a plunger into the column.
Differentiation of monocytes. CD14+ monocytes were differentiated into dendritic cells using ImmunoCult-ACF Dendritic Cell Media, Differentiation Supplement, and Maturation Supplement (Stem Cell Technologies, catalog #10986, #10988, and #10989; world wide web cdn.stemcell.com/media/Files/pis/DX20521-PIS_1_2_0.pdf?_ga=2.81451927.1035383195.1642105700-1174975582.1603298321) following the manufacturer's protocol available online. Briefly, purified CD14+ monocytes were added to Dendritic Cell Media containing the Differentiation Supplement and incubated at 37° C. for three days. On day 3, media was replaced with fresh Dendritic Cell media containing Differentiation Supplement and cells were incubated for two additional days. On day 5, Maturation Supplement was added to the cells at a 1 to 100 dilution (e.g. 50 μL supplement per 5 mL culture). Differentiated dendritic cells were harvested on day 7.
rAAV production and titration. rAAV vectors (AAV.SAN024 and AAV.SAN029) were produced using a standard triple transfection method (Sena-Esteves and Gao, Cold Spring Harb Protoc; doi:10.1101/pdb.top095513, 2020). All serotypes tested encode the same GFP transgene. Viruses were purified by cesium chloride ultracentrifugation and titrated using both silver staining and quantitative polymerase chain reaction (qPCR).
IRAK4 targeting drugs and AAV Treatments. Dendritic cells were plated in 96 well plates with 200,000 cells per well. Each treatment was performed in triplicates. Cells were treated with zimlovisertib IRAK4 inhibitor (Synonyms: PF-06650833) Cat. No.: HY-19836 (MedChemExpress) and PROTAC IRAK4 degrader-1 Cat. No.: HY-129966 (MedChemExpress) at 16 nm, 80 nm, 400 nm and 2000 nm for 18 hrs at 37° C., 5% CO2 in an incubator. […] The cells were incubated at 37° C., 5% CO2 in an incubator for 24 hours. After 24 hours, plates were centrifuged and media supernatant was collected. The clarified media was analyzed by Meso Scale Discovery MSD (world wide web mesoscale.com/products/v-plex-proinflammatory-panel-1-human-kit-k15049d/) performed by DC3 therapeutics https://www.dc3therapeutics.com/services. The experiment outline of PBMC isolation, monocyte purification and dendritic cell differentiation is illustrated in FIG. 1. […]

[2] = test system: Human monocytic dendritic cells; assay: LDH release assay (cell cytotoxicity); type: cell-based; settings: 16 nM, 80 nM, 400 nM and 2000 nM with AAV.SAN024 MOI 1e5 24 hrs, versus untreated/uninfected cells
Experimental: IRAK4 targeting drugs and AAV Treatments. Dendritic cells were plated in 96 well plates with 200,000 cells per well. Each treatment was performed in triplicates. Cells were treated with zimlovisertib IRAK4 inhibitor (Synonyms: PF-06650833) Cat. No.: HY-19836 (MedChemExpress) and PROTAC IRAK4 degrader-1 Cat. No.: HY-129966 (MedChemExpress) at 16 nm, 80 nm, 400 nm and 2000 nm for 18 hrs at 37° C., 5% CO2 in an incubator. After pre-treatment of 18 hrs with the drugs, AAV vectors at 1e5 MOI were used. The cells were incubated at 37° C., 5% CO2 in an incubator for 24 hours. After 24 hours, plates were centrifuged and media supernatant was collected. The clarified media was analyzed by Meso Scale Discovery MSD (world wide web mesoscale.com/products/v-plex-proinflammatory-panel-1-human-kit-k15049d/) performed by DC3 therapeutics https://www.dc3therapeutics.com/services. […]
LDH Release Assay. Cell cytotoxicity was measured by release of lactate dehydrogenase (LDH) in media supernatants. LDH was quantified using Promega kit (Catalog #G1780) as per manufacturer's protocol. […] Stop Solution was added, and the absorbance signal is measured at 490 nm in a plate reader. https://www.promega.com/products/cell-health-assays/cell-viability-and-cytotoxicity-assays/cytotox-96-non_radioactive-cytotoxicity-assay/?catNum=G1780#protocols […]

[3] = co-treated with 16 nM, 400 nM and 2000 nM and AAV.SAN024 MOI 1e5 at the same time, 24 hrs
[4] = co-treated with 16-2000 nM and AAV.SAN024 MOI 1e5, 24 hrs
[5] = pre-treated 18 hrs with 16 nM, 400 nM and 2000 nM, then AAV.SAN024 MOI 1e5 24 hrs, three donors
[6] = pre-treated 18 hrs with 16-2000 nM, then AAV.SAN024 MOI 1e5 24 hrs

Row | SMILES | AAV-induced secretion of IL1b cytokine from dendritic cells [1, 3] | AAV-induced IL6 release from dendritic cells [1, 4] | AAV-induced TNFα release from dendritic cells [1, 4] | AAV-induced secretion of IL1b cytokine from dendritic cells [1, 5] | AAV-induced IL6 release from dendritic cells [1, 6] | AAV-induced TNFα release from dendritic cells [1, 6] | Cellular toxicity (LDH release in media supernatants) [2]
1 | O=C1CCC(N2C(=O)c3cccc(NCc4cn(CCCNC(=O)c5ccc(-n6cc(NC(=O)c7coc(-c8ccnc(NCC9CC9)c8)n7)c(C(F)(F)F)n6)cc5)cn4)c3C2=O)C(=O)N1 (centres unmarked) [PROTAC IRAK4 degrader-1] | blocked | Cytokine block was also observed | Cytokine block was also observed | blocked | Cytokine block was also observed | Cytokine block was also observed | no cellular toxicity
2 | CC[C@@H]1[C@H](F)C(=O)N[C@@H]1COc1nccc2cc(C(N)=O)c(OC)cc12 [zimlovisertib, 1-[[(2S,3S,4S)-3-Ethyl-4-fluoro-5-oxo-2-pyrrolidinyl]methoxy]-7-methoxy-6-isoquinolinecarboxamide] | blocked | Cytokine block was also observed | Cytokine block was also observed | blocked | Cytokine block was also observed | Cytokine block was also observed | no cellular toxicity
